Measured values as given in US10544146B2, “Bicyclic compounds and their use as antibacterial agents and β-lactamase inhibitors” (priority 2011, dated 2020).

Key:
Format in all cases: cell-based
K. pneumo JMI 2681 = test: MIC, antibacterial and synergistic activity; details: substance alone
K. pneumo JMI 4106 = test: MIC, antibacterial and synergistic activity; details: substance alone
E. coli JMI 11103 = test: MIC, antibacterial and synergistic activity; details: substance alone
E. coli JMI 10768 = test: MIC, antibacterial and synergistic activity; details: substance alone
E. coli JMI 10770 = test: MIC, antibacterial and synergistic activity; details: substance alone
E. coli JMI 4080 = test: MIC, antibacterial and synergistic activity; details: substance alone
P. aerug JMI 2686 = test: MIC, antibacterial and synergistic activity; details: substance alone
E. coli JMI 4103 = test: MIC, antibacterial and synergistic activity; details: substance alone
[1] = test system: metallo β-lactamase producing bacteria; test: MIC in combination with various antibiotics against metallo β-lactamase producing bacteria (Tables 10-12); details: substance alone
Experimental: (§1) In the Tables 10-12, compounds of the present invention were tested in combination with various antibiotics against metallo β-lactamase producing bacteria.

K. pneumo JMI 2673 = test: MIC, antibacterial and synergistic activity; details: substance alone
E. coli JMI 10767 = test: MIC, antibacterial and synergistic activity; details: substance alone
Experimental: as §1

E. coli JMI 2692 = test: MIC, antibacterial and synergistic activity; details: substance alone
Experimental: as §1

A. baumanii JMI 2659 = test: MIC, antibacterial and synergistic activity; details: substance alone
Experimental: as §1

E. coli ATCC 25922 = test: MIC, antibacterial and synergistic activity
Experimental: as §1

E. cloacae JMI 36 = test: MIC, antibacterial and synergistic activity; details: substance alone
Experimental: as §1

K. pneumo JMI 2699 = test: MIC, antibacterial and synergistic activity; details: substance alone
Experimental: as §1

K. pneumo JMI 2697 = test: MIC, antibacterial and synergistic activity; details: substance alone
Experimental: as §1

P. aerug JMI 149 = test: MIC, antibacterial and synergistic activity; details: substance alone
Experimental: as §1

E. coli JMI 2671 = test: MIC, antibacterial and synergistic activity; details: substance alone
Experimental: as §1

K. pneumo JMI 2693 = test: MIC, antibacterial and synergistic activity; details: substance alone
Experimental: as §1

K. pneumo JMI 4088 = test: MIC, antibacterial and synergistic activity; details: substance alone
E. coli JMI 2665 = test: MIC, antibacterial and synergistic activity; details: substance alone
K. pneumo JMI 2674 = test: MIC, antibacterial and synergistic activity; details: substance alone
K. pneumo JMI 4109 = test: MIC, antibacterial and synergistic activity; details: substance alone

CC(C)(O/N=C(\C(=O)N[C@@H]1C(=O)N2C(C(=O)[O-])=C(C[n+]3ccccc3)CS[C@H]12)c1csc(N)n1)C(=O)O [Ceftazidime, ceftazidime]
MIC alone (K. pneumo JMI 2681; K. pneumo JMI 2681, Oxa-48 (Cpase)): 512 µg/mL | MIC alone (K. pneumo JMI 2681; K. pneumo JMI 2681, enzyme Oxa-48 (Cpase)): 512 µg/mL | MIC alone (K. pneumo JMI 4106; K. pneumo JMI 4106, KPC-3, TEM-1, SHV-12, SHV-141): >512 µg/mL | MIC alone (K. pneumo JMI 4106; K. pneumo JMI 4106, enzyme KPC-3, TEM-1, SHV-12, SHV-141): >512 µg/mL | MIC alone (E. coli JMI 11103; E. coli JMI 11103, CTX-M15 (Intermediate ESBL)): 32 µg/mL | MIC alone (E. coli JMI 11103; E. coli JMI 11103, enzyme CTX-M15 (Intermediate ESBL)): 32 µg/mL | MIC alone (E. coli JMI 10768; E. coli JMI 10768, CTX-M15 (Weak ESBL)): 8 µg/mL | MIC alone (E. coli JMI 10768; E. coli JMI 10768, enzyme CTX-M15 (Weak ESBL)): 8 µg/mL | MIC alone (E. coli JMI 10770; E. coli JMI 10770, CTX-M15 (Hyper ESBL)): 64 µg/mL | MIC alone (E. coli JMI 10770; E. coli JMI 10770, enzyme CTX-M15 (Hyper ESBL)): 64 µg/mL | MIC alone (E. coli JMI 4080; E. coli JMI 4080, Tem-10): 64 µg/mL | MIC alone (E. coli JMI 4080; E. coli JMI 4080, enzyme Tem-10): 64 µg/mL | MIC alone (P. aerug JMI 2686; P. aerug JMI 2686, KPC-2 (Cpase)): 512 µg/mL | MIC alone (P. aerug JMI 2686; P. aerug JMI 2686, enzyme KPC-2 (Cpase)): 512 µg/mL | MIC alone (E. coli JMI 4103; E. coli JMI 4103, KPC-2, Tem-1, CMY-Type): >512 µg/mL | MIC alone (E. coli JMI 4103; E. coli JMI 4103, enzyme KPC-2, Tem-1, CMY-Type): >512 µg/mL | MIC alone ([1]; Citrobacter freundii isolate 49469, NDM-1): >256 µg/mL | MIC alone ([1]; Enterobacter aerogenes isolate 8397, VIM-1): >256 µg/mL | MIC alone ([1]; Enterobacter aerogenes isolate 47683, VIM-12): 256 µg/mL | MIC alone ([1]; Enterobacter cloacae isolate 4, VIM-6): 256 µg/mL | MIC alone ([1]; Enterobacter cloacae isolate 10, IMP-26): >256 µg/mL | MIC alone ([1]; Enterobacter cloacae isolate 25, IMP-4): >256 µg/mL | MIC alone ([1]; Enterobacter cloacae isolate 1068, VIM-2): 128 µg/mL | MIC alone ([1]; Enterobacter cloacae isolate 1280, VIM-5): 64 µg/mL | MIC alone ([1]; Enterobacter cloacae isolate 1471, VIM-1): >256 µg/mL | MIC alone ([1]; Enterobacter cloacae isolate 1874, IMP-21): 32 µg/mL | MIC alone ([1]; Enterobacter cloacae isolate 3686, IMP-1): >256 µg/mL | MIC alone ([1]; Enterobacter cloacae isolate 53477, NDM-1): >256 µg/mL | MIC alone ([1]; Escherichia coli isolate 13, IMP-1): 256 µg/mL | MIC alone ([1]; Escherichia coli isolate 17, NDM-1): >256 µg/mL | MIC alone ([1]; Escherichia coli isolate 49, NDM-1): >256 µg/mL | MIC alone ([1]; Escherichia coli isolate 53749, NDM-1): >256 µg/mL | MIC alone ([1]; Klebsiella oxytoca isolate 24825, IMP-26): >256 µg/mL | MIC alone ([1]; Klebsiella oxytoca isolate 31141, VIM-23): 128 µg/mL | MIC alone ([1]; Klebsiella pneumoniae isolate 16, VIM-5): >256 µg/mL | MIC alone ([1]; Klebsiella pneumoniae isolate 38, NDM-1): >256 µg/mL | MIC alone ([1]; Providencia stuartii isolate 26582, VIM-1): >256 µg/mL | MIC alone ([1]; Serratia marcescens isolate 35, IMP-4): 64 µg/mL | MIC alone ([1]; Serratia marcescens isolate 36098, IMP-19): 128 µg/mL | MIC alone (K. pneumo JMI 2673; K. pneumo JMI 2673, CTX-M14 (ESBL)): 32 µg/mL | MIC alone (K. pneumo JMI 2673; K. pneumo JMI 2673, enzyme CTX-M14 (ESBL)): 32 µg/mL | MIC alone (E. coli JMI 10767; E. coli JMI 10767, Wt): ≤1 µg/mL | MIC alone (E. coli JMI 10767; E. coli JMI 10767, enzyme Wt): ≤1 µg/mL | MIC alone (E. coli JMI 2692; E. coli JMI 2692, NDM-1, TEM-1, CTX-M-15): >512 µg/mL | MIC alone (E. coli JMI 2692; E. coli JMI 2692, enzyme NDM-1, TEM-1, CTX-M-15): >512 µg/mL | MIC alone (A. baumanii JMI 2659; A. baumanii JMI 2659, Ges-14 (Cpase)): 512 µg/mL | MIC alone (A. baumanii JMI 2659; A. baumanii JMI 2659, enzyme Ges-14 (Cpase)): 512 µg/mL | MIC alone (E. coli ATCC 25922; E. coli ATCC 25922, enzyme Wt; substance alone): 0.25 µg/mL | MIC alone (E. coli ATCC 25922; E. coli ATCC 25922; enzyme Wt; substance alone): 0.25 µg/mL | MIC alone (E. cloacae JMI 36; E. cloacae JMI 36, P99): 128 µg/mL | MIC alone (E. cloacae JMI 36; E. cloacae JMI 36, enzyme P99): 128 µg/mL | MIC alone (K. pneumo JMI 2699; K. pneumo JMI 2699, VIM-1, CTX-M3): >512 µg/mL | MIC alone (K. pneumo JMI 2699; K. pneumo JMI 2699, enzyme VIM-1, CTX-M3): >512 µg/mL | MIC alone (K. pneumo JMI 2697; K. pneumo JMI 2697, IMP-4 (Cpase)): >512 µg/mL | MIC alone (K. pneumo JMI 2697; K. pneumo JMI 2697, enzyme IMP-4 (Cpase)): >512 µg/mL | MIC alone (P. aerug JMI 149; P. aerug JMI 149, Bla+++D+): 256 µg/mL | MIC alone (P. aerug JMI 149; P. aerug JMI 149, enzyme Bla+++D+): 256 µg/mL | MIC alone (E. coli JMI 2671; E. coli JMI 2671, VIM-19 (Cpase)): 64 µg/mL | MIC alone (E. coli JMI 2671; E. coli JMI 2671, enzyme VIM-19 (Cpase)): 64 µg/mL | MIC alone (K. pneumo JMI 2693; K. pneumo JMI 2693, NDM-1 (Cpase)): >512 µg/mL | MIC alone (K. pneumo JMI 2693; K. pneumo JMI 2693, enzyme NDM-1 (Cpase)): >512 µg/mL | MIC alone (K. pneumo JMI 4088; K. pneumo JMI 4088, KPC-3 (Cpase)): >512 µg/mL | MIC alone (K. pneumo JMI 4088; K. pneumo JMI 4088, enzyme KPC-3 (Cpase)): >512 µg/mL | MIC alone (E. coli JMI 2665; E. coli JMI 2665, CMY-2 (Plasmid Cpase)): 8 µg/mL | MIC alone (E. coli JMI 2665; E. coli JMI 2665, enzyme CMY-2 (Plasmid Cpase)): 8 µg/mL | MIC alone (K. pneumo JMI 2674; K. pneumo JMI 2674, CTX-M15 (ESBL)): 512 µg/mL | MIC alone (K. pneumo JMI 2674; K. pneumo JMI 2674, enzyme CTX-M15 (ESBL)): 512 µg/mL | MIC alone (K. pneumo JMI 4109; K. pneumo JMI 4109, SHV-1, SHV-12): 8 µg/mL | MIC alone (K. pneumo JMI 4109; K. pneumo JMI 4109, enzyme SHV-1, SHV-12): 8 µg/mL
